Converted amounts (≈) assume the structure as drawn. Read-outs that look alike come from different tables or passages of the source.
Assays:
[1] = system: Aspergillus niger ATCC 16404; experiment: Disinfecting antifungal activity on infected nebulizer as per standard FR-EN 1275; format: cell-based; settings: for log reduction of viable spore cells of A. Niger: 2 g/l, 6 hours; for log reduction in viable cells of A. niger: aqueous solution 0.5 g/l, 1 h
Protocol: (§1) In the different tests below the strains used were Pseudomonas aeruginosa DSM 939 (ATCC 15442), Staphylococcus aureus DSM 799 (ATCC 6538), Candida albicans DSM 1386 (ATCC 10231) and Aspergillus niger ATCC 16404.
Nebulizer contamination with fungi was obtained in vitro by soaking the inner part of nebulizers (Pari LC, SPRINT SP, Pari, Germany) in 1·10^7 fungi suspension at 5·10^7 cfu/mL prepared in Sabouraud broth. After incubation the nebulizer was soaked in sterile water containing squalamine at the determined concentrations in relation to the fungal strains under consideration (i.e. […] The nebulizer was then rinsed with two successive solutions of sterile water. The fungal count was performed on the second wash bath. The count of fungal colonies was performed on malt extract agar-agar (48 h).

[2] = system: Pseudomonas aeruginosa DSM 939 (ATCC 15442); experiment: Disinfecting antibacterial action on infected nebulizer as per standard FR-EN 1040; format: cell-based; settings: aqueous solution 0.5 g/l, within 1 hour
Protocol: as §1
(§2) The microbial contamination of nebulizers was obtained in vitro by soaking the inner part of nebulizers (Pari LC, SPRINT SP, Pari, Germany) in a bacterial suspension prepared in Mueller Hinton broth containing 1·10^8 to 5·10^8 cfu/mL of bacteria. Disinfection was performed by soaking this same part in a solution of sterile water containing squalamine for 1 h at a determined concentration of 0.5 g/L for the bacteria under consideration (S. aureus or P. aeruginosa). The nebulizer was then rinsed with two successive sterile water solutions. The bacterial count was performed on the second wash bath on Tryptone Soya Agar (24 h).

[3] = system: Staphylococcus aureus DSM 799 (ATCC 6538); experiment: as above; format: cell-based; settings: aqueous solution 0.5 g/l, within 1 hour
Protocol: as §1, §2

[4] = system: P. aeruginosa DSM 939; experiment: Minimum Inhibitory Concentration (MIC); format: cell-based; settings: Pseudomonas aeruginosa, DSM939
Excerpt: as §1
(§3) 4.2.1) The nebulizers used were infected with different bacterial suspensions (S. aureus and P. aeruginosa) calibrated at 10^8 cfu/ml or fungal suspensions (C. albicans and A. niger) calibrated at 10^7 cfu/ml. In a preliminary set of experiments, values of Minimum Inhibitory Concentration (MIC) and Time Kill of squalamine and ASD 2 were determined against chosen reference bacteria and fungi (MIC only). […] A time of 20 minutes was defined to carry out nebulizer disinfection using squalamine whilst korsolex PAA and the 2% solution of glutaraldehyde were used for a time of 15 minutes following the manufacturers' instructions to obtain disinfecting properties. At a first attempt, it was able to be shown that the use of a dose of 80 mg/ml squalamine or ASD-2 for 20 minutes leads to a 2- and 3-log reduction for bacteria whilst a 2-log reduction for C. albicans was only obtained when using a concentration of squalamine or ASD-2 of 190 mg/ml. […] Nonetheless, squalamine and ASD 2 used at a concentration stronger than 0.5 g/l are capable of obtaining a 5-log10 reduction in viable cells of bacteria such as S. aureus, P. aeruginosa and a 4-log10 reduction for fungi such as C. albicans with a cycle of 20 min (FIG. 2A). On the other hand, for A. niger, the concentration enabling a fungicidal effect to be obtained (i.e. not only fungistatic but additionally with spore eradication) was higher than for the bacteria and over a longer time (2 g/l for 6 hours) (FIG. 2B).

[5] = system: S. aureus DSM 799; experiment: Minimum Inhibitory Concentration (MIC); format: cell-based; settings: Staphylococcus aureus, DSM799
Excerpt: as §1, §3

[6] = system: A. niger ATCC 16404; experiment: Minimum Inhibitory Concentration (MIC); format: cell-based; settings: Aspergillus niger, ATCC16404
Excerpt: as §1, §3

[7] = system: C. albicans DSM 1386; experiment: Minimum Inhibitory Concentration (MIC); format: cell-based; settings: Candida albicans, DSM1386
Excerpt: as §1, §3

[8] = system: S. aureus DSM 799; experiment: In vitro model of nebulizer disinfection with aqueous solution; format: cell-based, Staphylococcus aureus; settings: for log reduction for bacteria (S. aureus): 80 mg/ml; for log reduction for bacteria (S. aureus) / log reduction in viable cells of S. aureus: 20 minutes; for log reduction in viable cells of S. aureus: 0.5 g/l; for dose needed to ensure nebulizer disinfection: S. aureus DSM 799
Excerpt: as §1
(§4) Nebulizers of Pari LC type were infected with bacteria (S. aureus and P. aeruginosa) via a suspension calibrated at 10^8 cfu/ml, and with fungi (C. albicans and A. niger) via a suspension calibrated at 10^7 cfu/ml. These nebulizers were then disinfected by soaking in a squalamine solution for 20 min, Glutaraldehyde and korsolex (peracetic acid) being used as inhibition control.
(§5) The microbial contamination of the nebulizer was obtained in vitro by soaking the inner part of the nebulizer (Pari LC, SPRINT SP, Pari, Germany) in a bacterial suspension prepared in Mueller Hinton broth containing 1·10^8 to 5·10^8 cfu/ml of bacteria (NF EN 1040, 1997) for 20 minutes. Disinfection was obtained by soaking this same part in a sterile water solution containing squalamine or ASD 2 for […] at the determined concentration in relation to the bacteria under consideration. For the fungi, suspensions of 1·10^7 to 5·10^7 cfu/ml (NF EN 1275, 1997) were prepared in Sabouraud broth and after incubation the nebulizer was soaked in sterile water containing squalamine or ASD 2. The nebulizer was then rinsed with two successive solutions of sterile water. The bacterial or fungal count was performed on the second wash bath. The counting of bacterial or fungal colonies was conducted on Tryptone Soya Agar for 24 hours for bacterial growth and on malt extract agar-agar for fungi at 37° C. for 48 hours.
(§6) The bactericidal and fungicidal test was performed three times in independent experiments and each bacterium and mould was evaluated separately. The concentration of squalamine and ASD 2 was increased until the required bactericidal and fungicidal activity was obtained. The disinfection time was set at 20 minutes for the first case and subsequently extended to 6 hours for A. Niger.

[9] = system: C. albicans DSM 1386; experiment: as above; format: cell-based, Candida albicans; settings: for log reduction for C. albicans: 190 mg/ml; for log reduction in viable cells of C. albicans: 0.5 g/l, 20 minutes; for dose needed to ensure nebulizer disinfection: C. albicans DSM 1386
Excerpt: as §1, §4, §5, §6

[10] = system: P. aeruginosa DSM 939; experiment: as above; format: cell-based, Pseudomonas aeruginosa; settings: for log reduction for bacteria (P. aeruginosa): 80 mg/ml; for log reduction for bacteria (P. aeruginosa) / log reduction in viable cells of P. aeruginosa: 20 minutes; for log reduction in viable cells of P. aeruginosa: 0.5 g/l; for dose needed to ensure nebulizer disinfection: P. aeruginosa DSM 939
Excerpt: as §1, §4, §5, §6

[11] = system: Candida albicans DSM 1386 (ATCC 10231); experiment: Disinfecting antifungal activity on infected nebulizer as per standard FR-EN 1275; format: cell-based; settings: aqueous solution 0.5 g/l, 1 h
Protocol: as §1
Nebulizer contamination with fungi was obtained in vitro by soaking the inner part of nebulizers (Pari LC, SPRINT SP, Pari, Germany) in 1·10^7 fungi suspension at 5·10^7 cfu/mL prepared in Sabouraud broth. After incubation the nebulizer was soaked in sterile water containing squalamine at the determined concentrations in relation to the fungal strains under consideration (i.e. 0.5 g/L for C. albicans (1 hour soaking) and 2 g/l for A. niger (6 h soaking). The nebulizer was then rinsed with two successive solutions of sterile water. The fungal count was performed on the second wash bath. The count of fungal colonies was performed on malt extract agar-agar (48 h).

[12] = system: A. niger ATCC 16404; experiment: In vitro model of nebulizer disinfection with aqueous solution; format: cell-based, Aspergillus niger; settings: for log reduction in viable cells of A. niger: 2 g/l, within 6 hours; for concentration enabling a fungicidal effect (with spore eradication) on A. niger: 6 hours; for dose needed to ensure nebulizer disinfection: A. niger ATCC 16404; for decrease for A. Niger: first attempt, 80 to 190 mg/ml, 20 minutes
Excerpt: as §1, §4, §5, §6

[13] = system: spores of A. Niger; settings: acid glutaraldehyde 0.5%; within 100 minutes; cited from earlier work
[14] = system: S. aureus; settings: topical lipophilic formulation, 0.5 to 5 mg/ml, 10^6 cfu/ml, cited from earlier work
[15] = Effect on plastic or metallic material (corrosion)
[16] = system: A. niger; settings: in vitro, within 24 hours; cited from earlier work
[17] = Cutaneous toxicity on the backs of shaven mice; format: in vivo; settings: concentrations in aqueous solution of 2 000
Excerpt: Cutaneous toxicity was examined over a period of 15 days by applying a squalamine ointment onto the backs of shaven mice (batch of 10 mice).

SMILES	log reduction of viable spore cells of A. Niger [1] [log]	log reduction in viable cells of A. niger [1] [log]	log reduction of viable cells of P. aeruginosa [2] [log]	log reduction of viable cells of S. aureus [3] [log]	MIC [4] [µg/mL]	MIC [5] [µg/mL]	MIC [6] [µg/mL]	MIC [7] [µg/mL]	log reduction for bacteria (S. aureus) [8] [log]	log reduction in viable cells of S. aureus [8] [log]	dose needed to ensure nebulizer disinfection [8] [mg/L]	log reduction for C. albicans [9] [log]	log reduction in viable cells of C. albicans [9] [log]	dose needed to ensure nebulizer disinfection [9] [mg/L]	log reduction for bacteria (P. aeruginosa) [10] [log]	log reduction in viable cells of P. aeruginosa [10] [log]	dose needed to ensure nebulizer disinfection [10] [mg/L]	log reduction in viable cells of C. albicans [11] [log]	log reduction in viable cells of A. niger [12] [log]	concentration enabling a fungicidal effect (with spore eradication) on A. niger [12] [g/L]	further results
CC(C)CCC[C@@H](C)[C@H]1CCC2C3C(CC[C@@]21C)[C@@]1(C)CC[C@H](O)CC1C[C@@H]3NCCCCN (stereo partly drawn) [ASD 2]	4	6	8	8	8 (≈ 16.8 µM)	2 (≈ 4.21 µM)	8 (≈ 16.8 µM)	8 (≈ 16.8 µM)	2	5	210	2	4	500	3	5	130	6	4	2	dose needed to ensure nebulizer disinfection [12]: 2000 mg/L; decrease for A. Niger [12]: no significant decrease
O=CCCCC=O [acid glutaraldehyde, glutaraldehyde]																					log reduction in the number of spores of A. Niger [13]: 1 log
CC(C)[C@@H](CC[C@@H](C)[C@H]1CCC2C3C(CC[C@@]21C)[C@@]1(C)CC[C@H](NCCCNCCCCN)CC1C[C@H]3O)OS(=O)(=O)O (stereo partly drawn) [squalamine]	4	6	8	8	4 (≈ 6.37 µM)	2 (≈ 3.18 µM)	16 (≈ 25.5 µM)	16 (≈ 25.5 µM)	2	5	210	2	4	500	3	5	130	6	4	2	log reduction of spores ([1]; aqueous solution of 2 g/l): 4 log; log reduction of S. aureus ([14]; within 24 hours): 4 log; log reduction of S. aureus ([14]; within 48 hours): 5 log; degradation of the equipment treated and/or in contact with the product [15]: do not induce any degradation; dose needed to ensure nebulizer disinfection [12]: 2000 mg/L; decrease for A. Niger [12]: no significant decrease; log reduction of A. niger [16]: 4 log; cutaneous toxicity [17]: do not cause cutaneous toxicity
